Measured values reported in patent US9555130B2, “Compositions and methods for in vivo imaging of myelin in the peripheral nervous system” (Case Western Reserve University, priority 2010, dated 2017).

Assays:
[1] = Solubility of BDB in organic solvents; assay type: physicochemical
[2] = Excitation and emission spectra (Cary Eclipse fluorescent spectrophotometer); assay type: physicochemical; conditions: 1 μM in DMSO
Experimental: FIG. 2 illustrates excitation and emission spectra of (E,E)-1,4-bis(4-aminostyryl)-2-dimethoxy-benzene (BDB) (1 μM in […]). Excitation spectra: emission at 510 nm (range 300-500 nm), bandwidth at 5 nm, scan at 120 nm/mm, integration time 0.5 sec. and maximal excitation wavelength at 426 nm. Emission spectra: excitation at 426 nm (range 430-650 nm), bandwidth at 5 nm, scan at 120 nm/min. integration time of 0.5 sec. and maximal emission wavelength at 506 nm.
Excitation and emission spectra of BDB (1 μM in DMSO) recorded using a Cary Eclipse fluorescent spectrophotometer (Variant Inc.; Palo Alto, Calif.) are shown in FIG. 2. Maximal excitation and emission peaks were found at 426 nm and 506 nm, respectively.

[3] = test system: sciatic nerve (PNS myelin); test: In vitro staining of sciatic nerve tissue sections, fluorescent microscopy; design: species or system wild type mouse; conditions: tissue section of sciatic nerve with surrounding muscle; confirmed by Black and Gold staining of adjacent section
From the text: In Vitro Staining Procedure: (1) Removal of wild type mouse sciatic nerve imbedded in muscle; (2) Sectioning of muscle with nerve with cryostat; (3) Chemical staining of tissue section of sciatic nerve with muscle tissue surrounded it; (4) Observation under fluorescent microscopy; (5) A Black and Gold staining of adjacent tissue section; and (6) Observation under regular microscope.
The staining of the sciatic nerve was confirmed by the Black and Gold staining of the adjacent tissue section (see FIG. 4).

[4] = test system: sciatic nerve (PNS myelin); test: Ex vivo staining of sciatic nerve after tail vein injection, microscope and FLI; assay type: in vivo, wild type mouse; conditions: post tail vein injection; tissue section under microscope
From the text: Ex Vivo Staining Procedure: (1) Injection of BDB via tail vein in wild type mouse; (2) Removal of sciatic nerve imbedded in muscle from right side; (3) Sectioning of muscle with nerve; (4) Observation of tissue under microscope to check staining; (5) Removal of left sciatic nerve from muscle; and (6) Observation of fluorescent in FLI machine.
An FLI machine picked up fluorescence from sciatic nerve placed in a tube with 4% paraformaldehyde (PFA) solution (FIG. 6).

[5] = test system: sciatic nerve (PNS myelin); test: In vivo imaging of sciatic nerve by multiphoton microscope; design: species or system wild type mouse; conditions: live anesthetized mouse, exposed sciatic nerve
From the text: In Vivo Staining Procedure: (1) Shave fur off region where sciatic nerve is located; (2) Cut soft tissue and muscle tissue covering sciatic nerve using surgical scissors; (3) Place animal under multiphoton microscope while anesthetized with isoflurane gas; and (4) Take live images of nerve.

CNS myelin = conditions: previously shown; cited from earlier work

For `COc1cc(/C=C/c2ccc(N)cc2)c(OC)cc1/C=C/c1ccc(N)cc1` [BDB, (E,E)-1,4-bis(4′-aminostyryl)-2-dimethoxy-benzene], the solubility [1] was “soluble in CH2Cl2, DMSO, and in most other organic solvents”, the maximal emission peak [2] was 506 nm and the maximal excitation peak [2] was 426 nm. The “staining of sciatic nerve in vitro” value [3] was “selectively stained the sciatic nerve”, the “staining of sciatic nerve ex vivo” value [4] was “successfully stained” and the “staining of intact myelin sheaths in peripheral nervous system tissue in vivo” value [5] was “selectively stains intact myelin sheaths”. For the same compound, the “binding to myelin and retention in CNS white matter” value (CNS myelin) was “selectively binds to myelin and is retained in CNS white matter”.
